Target: T1, human GPR84 receptor (Homo sapiens, UniProt Q9NQS5)
T1 construct: frozen aliquots prepared by acCELLerate; host or cells: CHO-K1
Test: cAMP HTRF assay for identification of cellular GPR84 antagonists
Format: cell-based
Conditions: CHO-K1 cells stably expressing human GPR84; Forskolin + agonist 6-OAU (EC80); average or median values
Description: cAMP HTRF® Assay for Identification of Cellular GPR84 Antagonists
By using a Homogenous Time-Resolved Fluorescence (HTRF®) based assay (#62AM5PEJ, Cisbio, Condolet, France) the inhibition of the Gi-coupled GPR84 receptor can be detected. CHO-K1 cells stably expressing human GPR84 receptor (purchased from DiscoveRx, now Eurofins) were used and treated with Forskolin (F6886, Sigma, Germany) to stimulate membrane adenylyl cyclases and thereby unspecific cAMP formation. Activation of the Gi-coupled GPR84 by a natural or small molecule agonist (e.g. 6-n-octyl aminouracile, inhouse) results in inhibition of cellular cAMP formation which can be released again by antagonists to this receptor. Detection and quantification of cellular cAMP levels in this HTRF assay is achieved by interaction between a fluorescent cAMP tracer (cAMP-d2) and an Eu-cryptate labelled anti-cAMP antibody. Following excitation at 337 nm this pairing allows for the generation of a fluorescence resonance energy transfer (FRET) between the partners and results in FRET induced emissions at 665 nm and 620 nm, the latter representing background signal by Eu-cryptate labelled anti-cAMP antibody. Maximal signal is obtained in the absence of any cellular cAMP (no competition for the binding of the tracer to the antibody). Given the combination of the Gi coupling properties of GPR84 and the competitive nature of the detection system agonist treatment should result in an increase in the HTRF signal due to lowered cAMP levels. Any signal decrease in the presence of Forskolin, agonist and compound is indicative of antagonist mediated abrogation of GPR84 signalling.
For the assay, frozen aliquots of CHO-K1 cells expressing hGPR84 (prepared by acCELLerate, Hamburg, Germany) were thawed and a cell suspension (1.67E+06 cells/mL) in assay media (Ham's F12 Nutrient Mix, Thermo Fisher Scientific, Waltham, USA; 5% fetal calf serum, Biomol, Hamburg, Germany) containing cAMP-d2 (dilution 1:20, supplied with the kit #62AM5PEJ, Cisbio, Condolet, France) was prepared. After recovery of cells for 20 minutes at 37° C., 3 μL/well cell suspension including cAMP-d2 were added to a pre-dispensed assay plate (Greiner Bio-One, Kremsmuenster, Austria) containing 50 nl/well test compound in 100% DMSO or 100% DMSO as control. This was followed by a 30 minutes incubation step at room temperature. […] The reaction was stopped by addition of 3 μL/well lysis buffer containing cAMP Eu-Cryptate antibody (dilution 1:20) (both supplied with the kit #62AM5PEJ, Cisbio, Condolet, France). To enable complete lysis, plates were incubated for 60 minutes at room temperature before measurement in an HTRF reader, e.g. a PHERAstar (BMG Labtech, Ortenberg, Germany).
From the fluorescence emissions at 665 nm (FRET) and at 620 nm (background signal of Eu-cryptate) the ratio (emission at 665 nm divided by emission at 620 nm×10000) was calculated and the data were normalized (reaction without test compound, only 100% DMSO=0% inhibition; all other assay components except agonist=100% inhibition). For dose response testing on the same microtiter plate, compounds were tested at 11 different concentrations in the range of 20 μM to 0.07 nM (20 μM, 5.7 μM, 1.6 μM, 0.47 μM, 0.13 μM, 38 nM, 11 nM, 3.1 nM, 0.89 nM, 0.25 and 0.07 nM; dilution series prepared before the assay at the level of the 100-fold conc. stock solutions by serial 1:3.5 dilutions in 100% DMSO) in duplicate values for each concentration. IC50 values were calculated by 4-parameter fitting using a commercial software package (Genedata Screener, Basel, Switzerland).
Examples were tested in selected biological assays one or more times. […]

T1 sequence (Q9NQS5 whole entry): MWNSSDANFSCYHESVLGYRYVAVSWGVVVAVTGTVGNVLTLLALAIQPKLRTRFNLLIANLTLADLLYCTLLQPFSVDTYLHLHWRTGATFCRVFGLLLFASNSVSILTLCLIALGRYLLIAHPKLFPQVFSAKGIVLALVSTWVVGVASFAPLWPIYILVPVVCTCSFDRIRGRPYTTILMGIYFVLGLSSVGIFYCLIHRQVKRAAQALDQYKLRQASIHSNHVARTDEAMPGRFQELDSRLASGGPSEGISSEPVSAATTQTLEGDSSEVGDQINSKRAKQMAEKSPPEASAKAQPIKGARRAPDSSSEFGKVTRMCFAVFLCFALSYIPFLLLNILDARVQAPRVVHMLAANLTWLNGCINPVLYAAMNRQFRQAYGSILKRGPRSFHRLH

SMILES | IC50 [nM]
Cc1c(C(=O)NC[C@@H]2CCCO2)oc2c1-c1nn(C[C@H]3COCCO3)cc1CC2 [Example 89, 2-[(2S)-1,4-dioxan-2-ylmethyl]-8-methyl-N-[(2S)-tetrahydrofuran-2-ylmethyl]-4,5-dihydro-2H-furo[2,3-g]indazole-7-carboxamide] | 40
Cc1c(C(=O)NC[C@@H]2CCCO2)oc2c1-c1nn(C[C@H]3CCOC3)cc1CC2 [Example 111, 8-methyl-N-[(2S)-tetrahydrofuran-2-ylmethyl]-2-[(3R)-tetrahydrofuran-3-ylmethyl]-4,5-dihydro-2H-furo[2,3-g]indazole-7-carboxamide] | 140
O=C(NC[C@@H]1CCCO1)c1oc2c(c1C1CC1)-c1nn(C[C@H]3COCCO3)cc1CC2 [Example 194] | 30
Cc1c(C(=O)NC[C@@H]2CCCO2)oc2c1-c1nn(CCN3CCN(C(=O)OC(C)(C)C)CC3)cc1CC2 [Example 141, tert-butyl 4-[2-(8-methyl-7-{[(2S)-tetrahydrofuran-2-ylmethyl]carbamoyl}-4,5-dihydro-2H-furo[2,3-g]indazol-2-yl)ethyl]piperazine-1-carboxylate] | 700
O=C(NCc1cocn1)c1oc2c(c1C(F)(F)F)-c1nn(C[C@H]3COCCO3)cc1CC2 [Example 239, 2-[(2S)-1,4-Dioxan-2-ylmethyl]-N-(1,3-oxazol-4-ylmethyl)-8-(trifluormethyl)-4,5-dihydro-2H-furo[2,3-g]indazol-7-carboxamide] | 136
O=C(NC[C@H]1COCCO1)c1oc2c(c1C(F)(F)F)-c1nn(C[C@@H]3COCCO3)cc1CC2 [Example 301, 2-{[(2R)-1,4-dioxan-2-yl]methyl}-N-{[(2S)-1,4-dioxan-2-yl]methyl}-8-(trifluoromethyl)-4,5-dihydro-2H-furo[2,3-g]indazole-7-carboxamide] | 723
CC1Cc2oc(C(=O)NC[C@@H]3COCCO3)c(C(F)(F)F)c2-c2nn(C[C@H]3COCCO3)cc21 (single isomer, unassigned) [Example 254-1, (4R or 4S)-N-{[(2R)-1,4-dioxan-2-yl]methyl}-2-{[(2S)-1,4-dioxan-2-yl]methyl}-4-methyl-8-(trifluoromethyl)-4,5-dihydro-2H-furo[2,3-g]indazole-7-carboxamide] | 10
Cc1c(C(=O)NC[C@@H]2CCCO2)oc2c1-c1nn(C[C@H]3COCCO3)cc1C1(CC1)C2 [Example 125, 2′-[(2S)-1,4-dioxan-2-ylmethyl]-8′-methyl-N-[(2S)-tetrahydrofuran-2-ylmethyl]-2′,5′-dihydrospiro[cyclopropane-1,4′-furo[2,3-g]indazole]-7′-carboxamide] | 51
Cc1cnc(CNC(=O)c2oc3c(c2C(F)(F)F)-c2nn(C[C@H]4COCCO4)cc2CC3)cn1 [Example 227, 2-[(2S)-1,4-Dioxan-2-ylmethyl]-N-[(5-methylpyrazin-2-yl)methyl]-8-(trifluormethyl)-4,5-dihydro-2H-furo[2,3-g]indazol-7-carboxamide] | 24
Cc1ccnc(CCNC(=O)c2oc3c(c2C(F)(F)F)-c2nn(C[C@H]4COCCO4)cc2CC3)c1 [Example 231, 2-[(2S)-1,4-Dioxan-2-ylmethyl]-N-[2-(4-methylpyridin-2-yl)ethyl]-8-(trifluormethyl)-4,5-dihydro-2H-furo[2,3-g]indazol-7-carboxamide] | 1390
C[C@@H]1Cc2oc(C(=O)NC[C@@H]3CCCO3)c(C(F)(F)F)c2-c2nn(C[C@H]3COCCO3)cc21 (single isomer, unassigned) [Example 255-1, (4R or 4S)-2-{[(2S)-1,4-dioxan-2-yl]methyl}-4-methyl-N-{[(2S)-oxolan-2-yl]methyl}-8-(trifluoromethyl)-4,5-dihydro-2H-furo[2,3-g]indazole-7-carboxamide] | 3
Cc1ccc(Cn2cc3c(n2)-c2c(oc(C(=O)NC[C@@H]4COCCO4)c2C(F)(F)F)CC32CC2)cn1 [Example 212, N-{[(2R)-1,4-dioxan-2-yl]methyl}-2′-[(6-methylpyridin-3-yl)methyl]-8′-(trifluoromethyl)-2′,5′-dihydrospiro[cyclopropane-1,4′-furo[2,3-g]indazole]-7′-carboxamide] | 4
O=C(NCCc1nccs1)c1oc2c(c1C(F)(F)F)-c1nn(C[C@H]3COCCO3)cc1CC2 [Example 237, 2-[(2S)-1,4-Dioxan-2-ylmethyl]-N-[2-(1,3-thiazol-2-yl)ethyl]-8-(trifluormethyl)-4,5-dihydro-2H-furo[2,3-g]indazol-7-carboxamide] | 496
CC1CCC(CNC(=O)c2oc3c(c2C(F)(F)F)-c2nn(CC4COCCO4)cc2CC3)O1 (single isomer, unassigned) [Example 224-2, 2-{[(2S)-1,4-dioxan-2-yl]methyl}-N-{[(2S or 2R,5S or 5R)-5-methyloxolan-2-yl]methyl}-8-(trifluoromethyl)-4,5-dihydro-2H-furo[2,3-g]indazole-7-carboxamide] | 154
Cc1c(C(=O)NC[C@@H]2CCCO2)oc2c1-c1nn(CC3CCCCO3)cc1CC2 (mixture of isomers) [Example 190] | 238

Second part, the compound after the results:

IC50 [nM] | SMILES
11100 | Cc1c(C(=O)Nc2ccc(C#N)cc2)oc2c1-c1nn(Cc3ccccn3)cc1CC2 [Example 43, N-(4-cyanophenyl)-8-methyl-2-(pyridin-2-ylmethyl)-4,5-dihydro-2H-furo[2,3-g]indazole-7-carboxamide]
750 | Cc1cccc(Cn2cc3c(n2)-c2c(oc(C(=O)NCCN4CCCC4)c2C)CC3)n1 [Example 69, 8-methyl-2-[(6-methylpyridin-2-yl)methyl]-N-[2-(pyrrolidin-1-yl)ethyl]-4,5-dihydro-2H-furo[2,3-g]indazole-7-carboxamide]
5070 | Cc1c(C(=O)NCc2nnc[nH]2)oc2c1-c1nn(Cc3ccccn3)cc1CC2 [Example 20, 8-methyl-2-(pyridin-2-ylmethyl)-N-(4H-1,2,4-triazol-3-ylmethyl)-4,5-dihydro-2H-furo[2,3-g]indazole-7-carboxamide]
6520 | Cc1c(C(=O)NC[C@@H]2COCCO2)oc2c1-c1nn(CCN)cc1CC2 [Example 161, 2-(2-aminoethyl)-N-[(2R)-1,4-dioxan-2-ylmethyl]-8-methyl-4,5-dihydro-2H-furo[2,3-g]indazole-7-carboxamide]
240 | Cc1c(C(=O)NCC2CCCO2)oc2c1-c1nn(Cc3ccccn3)cc1CC2 (racemic) [Example 3, 8-methyl-2-(pyridin-2-ylmethyl)-N-[(2R/S)-tetrahydrofuran-2-ylmethyl]-4,5-dihydro-2H-furo[2,3-g]indazole-7-carboxamide]
97 | Cc1c(C(=O)NCC2CC(F)(F)CO2)oc2c1-c1nn(Cc3ccccn3)cc1CC2 (racemic) [Example 174]
190 | Cc1c(C(=O)NCC2COc3ncccc3O2)oc2c1-c1nn(Cc3ccccn3)cc1CC2 (racemic) [Example 9, N-[(2R/S)-2,3-dihydro[1,4]dioxino[2,3-b]pyridin-2-ylmethyl]-8-methyl-2-(pyridin-2-ylmethyl)-4,5-dihydro-2H-furo[2,3-g]indazole-7-carboxamide]
120 | Cc1c(C(=O)NCc2ccn(C)n2)oc2c1-c1nn(Cc3ccccn3)cc1C1(CC1)C2 [Example 123, 8′-methyl-N-[(1-methyl-1H-pyrazol-3-yl)methyl]-2′-(pyridin-2-ylmethyl)-2′,5′-dihydrospiro[cyclopropane-1,4′-furo[2,3-g]indazole]-7′-carboxamide]
1000 | O=C(NC[C@@H]1CCCO1)c1cc2c(o1)CCc1cn(Cc3ccccn3)nc1-2 [Example 1, 2-(pyridin-2-ylmethyl)-N-[(2S)-tetrahydrofuran-2-ylmethyl]-4,5-dihydro-2H-furo[2,3-g]indazole-7-carboxamide]

From patent US12570666B2, “Furoindazole derivatives” (Bayer Aktiengesellschaft, priority 2019, dated 2026)
